According to ChEMBL document CHEMBL1201862, “PubChem BioAssay data set” (2004):
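Briefly, cells in 96-well plates were exposed to five compound concentrations for 48 h, and endpoints were estimated by linear interpolation. The concentration for 50% growth inhibition is given as GI50.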 Active and inactive are the calls of the source. Cut-off read from the data, not from the text of the source: active = GI50 up to about 1.1 µM and inactive = higher. Residues, ends and D or L forms follow the SMILES beside them. Groups on a side chain read outwards from the residue. *: point of attachment. Cbz = O=C(OCc1ccccc1)*; Boc = CC(C)(C)OC(=O)*

Tests used:
Test in all cases: NCI-60 cell line screen, 48 h
KM-20L2 = system: KM-20L2
HOP-18 = system: HOP-18
DMS-114 = system: DMS-114
DMS-273 = system: DMS-273
XF498 = system: XF498
Hs-578T = system: Hs-578T
T47D = system: T47D
MDA-N = system: MDA-N

Structure (SMILES) | GI50 (Hs-578T) | GI50 (T47D) | GI50 (MDA-N) | other results
CN(/C(=N\O)c1ccccc1)c1ccccc1 | – | – | – | GI50 (KM-20L2): 17.3 µM (inactive); GI50 (HOP-18): < 0.01 µM (active); GI50 (DMS-114): 25.6 µM (inactive); GI50 (DMS-273): 24.3 µM (inactive)
C/C(=N\NS(=O)(=O)c1ccccc1)c1ccc(Cl)c(Cl)c1 | – | – | – | GI50 (KM-20L2): 72.8 µM (inactive); GI50 (HOP-18): 49.8 µM (inactive); GI50 (XF498): > 100 µM (inactive); GI50 (DMS-114): 39.2 µM (inactive); GI50 (DMS-273): 85.3 µM (inactive)
COC(=O)c1cccc(COc2ccc([N+](=O)[O-])cc2Cl)c1 | 60.1 µM (inactive) | > 100 µM (inactive) | – | –
N/C1=C/C(=O)NC(=O)c2c(c3ccccc3oc2=O)C1 | > 100 µM (inactive) | > 100 µM (inactive) | > 100 µM (inactive) | –
CC(=O)Nc1ccc2c(c1)[nH]c(=O)c1cc(Cl)ccc12 | 94 µM (inactive) | 57.9 µM (inactive) | – | –
C/C(=N\NC(=S)NCCCCNC(=S)N/N=C(\C)c1ccccn1)c1ccccc1 | > 23.6 µM (inactive) | 0.351 µM (active) | 2.25 µM (inactive) | –
COc1cnnc2c(C)c(-c3ccccc3)nn12 | > 66.1 µM (inactive) | 2.6 µM (inactive) | 60.5 µM (inactive) | –
Cc1[nH]c2ccccc2c1C1Cc2ccccc2N1C(=O)/C=C/C=C/c1ccccc1 (centres undefined) | – | – | – | GI50 (KM-20L2): > 100 µM (inactive); GI50 (DMS-114): > 100 µM (inactive); GI50 (DMS-273): > 100 µM (inactive)
NC(=O)CN1CC(C2=C(O)CN(CC(N)=O)C2=O)=CC1=O | > 100 µM (inactive) | > 100 µM (inactive) | – | –
Cn1c(=O)c(C(=O)NC23CC4CC(CC(C4)C2)C3)c(O)c2ccccc21 | – | – | – | GI50 (KM-20L2): 28.9 µM (inactive); GI50 (DMS-114): 45.6 µM (inactive); GI50 (DMS-273): 26.2 µM (inactive)
CCN1CC2(COC)C(O)CC(OC)C34C5CC6(O)C(OC)C=C(C5C6OC(=O)c5ccc(OC)c(OC)c5)C(C(OC)C23)C14 (centres undefined) | > 7.5 µM (inactive) | > 7.5 µM (inactive) | > 7.5 µM (inactive) | –
COc1ncnc2c1cnn2Cc1cn(COCC(O)CO)nn1 (centres undefined) | – | > 100 µM (inactive) | > 100 µM (inactive) | –
OC(c1cc2ccc(C(F)(F)F)cc2c2cc(C(F)(F)F)ccc12)C1CCCCN1 (centres undefined) | 1.9 µM (inactive) | 1.87 µM (inactive) | 1.75 µM (inactive) | –
COc1cc(OC)cc(Oc2nc3ccccc3nc2C(=O)O)c1 | > 100 µM (inactive) | > 100 µM (inactive) | – | –
CCOC(=O)C1C(=O)CC(C)(O)C(C(=O)OCC)C1c1ccc(N(C)C)cc1 (centres undefined) | – | > 100 µM (inactive) | – | –
COc1c(N2CCCCC2)c2c(=O)c3ccccc3oc2c2c3ccccc3n(C)c12 | > 100 µM (inactive) | – | 38.1 µM (inactive) | –
CC1(C)CCCC2(C)C3=C(CCC12)C(=O)OC3 (centres undefined) | 97.9 µM (inactive) | 59.2 µM (inactive) | > 100 µM (inactive) | –

Structure (SMILES) | GI50 (Hs-578T) | GI50 (T47D) | GI50 (MDA-N) | other results
O=C1c2ccccc2-c2nc(-c3cccs3)cc3c2c1nc1ccccc13 | 21.3 µM (inactive) | – | 6.97 µM (inactive) | –
NC(=O)C(NC=O)c1ccccc1 (centres undefined) | > 100 µM (inactive) | > 100 µM (inactive) | > 100 µM (inactive) | –
c1ccc(Cc2cccc3cc(-c4ccc(-c5ccccc5)cc4)[nH]c23)cc1 | 14.7 µM (inactive) | > 100 µM (inactive) | > 100 µM (inactive) | –
Cc1c(C)c(C)c(-n2c(=O)n(C)c(=O)n2-n2c(=O)n(C)c(=O)n2-c2c(C)c(C)c(C)c(C)c2C)c(C)c1C | 0.0533 µM (active) | > 100 µM (inactive) | > 100 µM (inactive) | –
N=C1N(S(=O)(=O)c2ccccc2)[C@@H](Cc2ccccc2)[C@H](c2ccccc2)C1(c1ccccc1)c1ccccc1 | > 100 µM (inactive) | – | > 100 µM (inactive) | –
COc1ccc(N2C(=O)/C(=C\c3cccc(Oc4ccccc4)c3)S(=O)(=O)C2c2ccccc2)cc1 (centres undefined) | – | 35.6 µM (inactive) | 19.1 µM (inactive) | –
Cc1cc(N(CCC#N)CCC#N)ccc1/C=C(\NC(=O)/C=C/c1ccccc1)C(=O)N=[N+]=[N-] | – | – | – | GI50 (KM-20L2): > 100 µM (inactive); GI50 (XF498): 28.5 µM (inactive); GI50 (DMS-114): > 100 µM (inactive); GI50 (DMS-273): > 100 µM (inactive)
Cc1nc2c(=S)n(C)ncc2[nH]1 | – | > 100 µM (inactive) | > 100 µM (inactive) | –
CC(C)CC1C(=O)NCCC(NC(=O)C(N)Cc2ccc(O)cc2)C(=O)NC(Cc2ccccc2)C(=O)NC(Cc2ccccc2)NC1=O (centres undefined) | 0.885 µM (active) | > 100 µM (inactive) | > 100 µM (inactive) | –
O=S(=O)(O)c1ccc2cc(/N=N/c3c(O)ccc4ccccc34)ccc2c1 | 69.2 µM (inactive) | > 100 µM (inactive) | > 100 µM (inactive) | –
CC(C)(C)OC(=O)NC(CS(=O)(=O)O)C(=O)O (centres undefined) | – | > 100 µM (inactive) | > 100 µM (inactive) | –
CCC1c2[nH]c3ccccc3c2C[C@H]2C(=O)NC(Cc3ccccc3)C(=O)N12 (some centres undefined) | 12.4 µM (inactive) | 22 µM (inactive) | 25.8 µM (inactive) | –
Cc1cc(C)c2c(O)cc(-c3cccc(Cl)c3)nc2n1 | 0.252 µM (active) | – | 0.0138 µM (active) | –
CSc1ccc2c(c1)N(CCCN(C)C)c1ccccc1S2 | 11 µM (inactive) | 10.4 µM (inactive) | 10.7 µM (inactive) | –
CC(C)(C)OC(=O)NC(CCCCNC(=O)CNC(=O)OCc1ccccc1)C(=O)NC(CCCCNC(=O)CNC(=O)OCc1ccccc1)C(=O)NC(CCCCNC(=O)CNC(=O)OCc1ccccc1)C(=O)NC(CCCCNC(=O)CNC(=O)OCc1ccccc1)C(=O)O (centres undefined) (Boc-K([Gly-Cbz])K([Gly-Cbz])K([Gly-Cbz])K([Gly-Cbz])-OH; configuration not given here) | – | > 100 µM (inactive) | > 100 µM (inactive) | –
O=C1c2cccc(O)c2C(=O)c2c(O)cccc21 [DANTHRON] | – | – | – | GI50 (KM-20L2): 99.1 µM (inactive); GI50 (XF498): > 100 µM (inactive); GI50 (DMS-114): 38 µM (inactive); GI50 (DMS-273): 31.6 µM (inactive)
